Measured values taken from patent US4585773A, “Isoindolinyl-alkyl-piperazines” (Bristol-Myers Company, priority 1984, dated 1986).
Where a name gives a salt, the structure may show the parent alone. Read-outs that look alike come from different tables or passages of the source.

Columns and labels:
α1 = test: in vitro α1 binding, [3H]WB-4101 (Table IV); settings: [3H]WB-4101, brain tissue, 50 mM Hepes.KOH, pH 7.4; read-out: α1 Binding IC50
Protocol: (§1) In this Example the compounds of Examples I-XI were tested in vitro for α1 and α2 binding. The compound of Example I was tested as its monochloride 2-propanolate hydrate, i.e. as C22 […] CLN4 O4 S .HCl.0.2(CH3)2 CHOH 0.15H2 O. In the testing specific brain tissues were prepared as sources of binding sites. Aliquots of the washed members are incubated with a low concentration of […]. After incubation at suitable temperature, the reaction mixture is treated to separate the membrane-bound radioligand Radioactivity is measured. Linear regression analysis of the probit value for the percent of binding occurring in the presence of varying concentrations of the compound of interest plotted against the concentration of the compound yields concentrations which inhibit 50% specific binding, the IC50. The assay buffer is 50 mM Hepes.KOH, pH 7.4. The ligand is [^3 H]WB-4101 from New England Nuclear for α1 and [^3 H]Clonidine from New England Nuclear for α2. The results are considered against phentolamine methanesulfonate (Reference) which is considered a good α-binder.

[1] = conscious rat diuretic screen of Lipschitz (Table I); assay type: in vivo, rat (female Sprague Dawley; male Okamoto-Aoki); settings: female Sprague Dawley rats; for response vs control in vivo at 30 mg/kg / response vs control in vivo at 3 mg/kg: Rattus norvegicus, po
Protocol: With respect to diuretic utility there can be mentioned the conscious rat diuretic screen of Lipschitz, et al. (J. Pharmacol. Exp. Therap. 79, 97-110 (1943)). In this test, dose response assays of diuretic, natruiretic and kaliuretic activity are determined by oral administration of the test substance. The compounds synthesized in Examples I-XI were tested for diuretic […]. The compound of Example I was tested as its monohydrochloride 2-propanolate hydrate, i.e. as C22 […] ClN4 O4 S.HCl. 0.2(CH3)2 CHOH.0.15H2 O. Testing was carried out by the diuretic screen of Lipschitz, et al. described previously. In Table I below Volume Ratio is the ratio of total volume excreted for the test comuound compared to the total volume excreted for the control, Na^+ Ratio is the Na^+ excreted for the test compound compared to the Na^+ excreted for the control, K^+ Ratio is the K^+ excreted for the test compound compared to the K^+ excreted for the control. Female Sprague Dawley rats were used in Test Nos. 1, 2, 6, 7, 11-29. Male Okamoto-Aoki rats were used in Test Nos. 3-5 and 8-10 and testing for antihypertensive activity was carried out simultaneously on the Test Nos. 3-5 rats. In some instances, compounds were retested at the same dose level.

α2 = test: in vitro α2 binding, [3H]Clonidine (Table IV); settings: for IC50: [3H]Clonidine, brain tissue, 50 mM Hepes.KOH, pH 7.4, read-out: α2 Binding IC50
Protocol: as §1

[2] = test system: DOCA-salt Hypertensive Rat; test: antihypertensive activity, DOCA-salt Hypertensive Rat (Table II); assay type: in vivo; settings: DOCA
Protocol: DOCA-salt Hypertensive Rat
Male rats initially weighing 80-100 g, are made hypertensive by surgically implanting two 50 mg pellets of deoxycorticosterone acetate (DOCA) under the skin of the abdomen of each rat and providing 1% saline ad libitum. After three weeks, the 1% saline is replaced with distilled water. One week later, animals are anesthetized with methoxyflurane and a catheter advanced into the aorta via the left common corotid artery to record mean arterial blood pressure (MABP) and heart rate. The heparin-filled catheter is passed beneath the skin and exteriorized behind the head. Two days later, MABP and heart rate are determined before and four hours after oral administration of vehicle (0.25% Methocel in 0.9% saline) or test compound suspended in vehicle at a dose volume equivalent to 5 ml/kg.
Testing was carried out on the compounds of Examples I-XII for antihypertensive activity. In the case of all the compounds testing was carried out on the Spontaneously Hypertensive rat as described hereinbefore. In the case of the compounds of Examples I-IV testing was also carried out on the DOCA-salt Hypertensive Rat. The compound of Example I was tested as its monochloride 2-propanolate hydrate, i.e. as C22 H27 ClN4 O4 S.HCl.0.2(CH3)2 CHOH.0.15H2 O in Tests 1-5; and as the 3/4 mole hydrochloride, i.e. C22 H27 ClN4 O4 S: 3/4 HCl in Tests 3a, 4a, 5a-5d. Test results are set forth in Table II below wherein SHR stands for Spontaneously Hypertensive rat, DOCA stands for DOCA-salt Hypertensive Rat, ΔBP stands for the change in systolic blood pressure in mm Hg, ΔHR stands for the change in mean heart rate in beats per minute and the times set forth are the times after dosing. A peak change in ΔBP of more than 20 is considered as indicating activity.

[3] = test system: α blocking activity (phenylephrine); test: in vivo α blocking activity, phenylephrine (PE) as α-agonist (Table III); parameters: species or system rat; ED50: unit not given beside the values; settings: for in vivo α blocking activity (in words): conclusion from Table III; for ED50: iv
Protocol: (§2) In this example the compounds of Examples I (modified), II, III, V, VI, VII, VIII, IX and XI were tested in rats for in vivo α blocking activity according to methodology described at page 312 of Deitchman, et al., Journal of Pharmacological Methods, 3, 311-321 (1980). In this test phenylephrine (PE below) or norepinephrine (NE below) was administered as an α-agonist to the rats before and after dosing with the test drug and the average interpolated dose or PE/NE effecting a 50 mm Hg increase in mean arterial blood pressure was determined. Table III below records the results. In such Table, ED50 stands for such average interpolated dose and Average Dose Shift stands for the average ratio of ED50 after drug administration to ED50 before drug administration. The compound of Example I was tested as its monochloride 2-propanolate hydrate, i.e. as C22 H27 ClN4 O4 S.HCl 0.2(CH3)2 CHOH.0.15H2 O in Tests 1-5 and as the 3/4 mole hydrochloride, i.e. C22 H27 ClN 4 O4 S.3/4HCL in Tests 2a and 3a. The route was intravenous except in the case of the runs of Test Nos. 2a, 3, 3a, 26-29 the route was oral.

[4] = test system: Spontaneously Hypertensive rat; test: antihypertensive activity, Spontaneously Hypertensive Rat (Table II); assay type: in vivo; settings: for ΔBP 2 hours / ΔBP 4 hours / ΔHR 2 hours / ΔHR 4 hours: SHR, 30 mg/kg oral; for antihypertensive effect (in words): conclusion from Table II (SHR, and DOCA for Examples I-IV)
Protocol: Spontaneously Hypertensive Rat Male rats weighing 300-400 g, previously conditioned to the procedure, are prewarmed in a heating chamber (30° C.) for 10-20 min. and subsequently restrained in a wire holder at that temperature. Systolic blood pressure and heart rate are measured by the tailcuff technique using a pneumatic pulse transducer and a biotachometer before, and 2, 4, and 24 hours after oral administration of vehicle (0.25% Methocel in water) or test compounds suspended in vehicle at a dose volume equivalent to 5 ml/kg. Blood pressure and heart rate data are reported as changes from zero-hour measurements with vehicle control groups run periodically to confirm that the vehicle has no effect. Testing was carried out on the compounds of Examples I-XII for antihypertensive activity. In the case of all the compounds testing was carried out on the Spontaneously Hypertensive rat as described hereinbefore. In the case of the compounds of Examples I-IV testing was also carried out on the DOCA-salt Hypertensive Rat. The compound of Example I was tested as its monochloride 2-propanolate hydrate, i.e. as C22 […] ClN4 O4 S.HCl.0.2(CH3)2 CHOH.0.15H2 O in Tests 1-5; and as the 3/4 mole hydrochloride, i.e. C22 […] ClN4 O4 S: 3/4 HCl in Tests 3a, 4a, 5a-5d. Test results are set forth in Table II below wherein SHR stands for Spontaneously Hypertensive rat, DOCA stands for DOCA-salt Hypertensive Rat, ΔBP stands for the change in systolic blood pressure in mm Hg, ΔHR stands for the change in mean heart rate in beats per minute and the times set forth are the times after dosing. A peak change in ΔBP of more than 20 is considered as indicating activity.

[5] = test system: α blocking activity (norepinephrine); test: in vivo α blocking activity, norepinephrine (NE) as α-agonist (Table III); parameters: species or system rat; settings: ED50 after/before drug
Protocol: as §2

[6] = 30 mg/kg oral, read-out: K+ Ratio
[7] = 30 mg/kg oral, read-out: Na+ Ratio
[8] = 30 mg/kg oral, read-out: Volume Ratio
[9] = 3 mg/kg oral, read-out: K+ Ratio
[10] = 3 mg/kg oral, read-out: Na+ Ratio
[11] = 3 mg/kg oral, read-out: Volume Ratio

Compound | IC50 (α1) | Urinary Na/K (Test Compound) ([1]; 30 mg/kg oral) | response vs control in vivo at 30 mg/kg [1, 6] | response vs control in vivo at 30 mg/kg [1, 7] | response vs control in vivo at 30 mg/kg [1, 8] | IC50 (α2) | ΔBP 4 hours ([2]; 30 mg/kg oral) | ΔHR 4 hours ([2]; 30 mg/kg oral) | in vivo α blocking activity (in words) [3] | ED50 [3] | ΔBP 2 hours [4] | ΔBP 4 hours [4] | ΔHR 2 hours [4] | ΔHR 4 hours [4] | antihypertensive effect (in words) [4] | Urinary Na/K (Test Compound) ([1]; 3 mg/kg oral) | response vs control in vivo at 3 mg/kg [1, 9] | response vs control in vivo at 3 mg/kg [1, 10] | response vs control in vivo at 3 mg/kg [1, 11] | further results
NS(=O)(=O)c1cc2c(cc1Cl)CN(CCCN1CCN(c3cccc(Cl)c3)CC1)C2=O [Example II, 6-Chloro-2-[3-[4-(3-chlorophenyl)-1-piperazinyl]propyl]-2,3-dihydro-3-oxo-1H-isoindole-5-sulfonamide hydrochloride hemihydrate] | 0.00762 µM | 3.41 | 129% | 143% | 117% | 0.694 µM | -33 ± 5 mm Hg | 22 ± 17 beats per minute | active as in vivo α blockers | 34.0 | -23 ± 4 mm Hg | -18 ± 7 mm Hg | -18 ± 10 beats per minute | -4 ± 16 beats per minute | good antihypertensive effect without significantly affecting heart rate |  |  |  |  | α2 binding activity (in words) (α2): α2 binding activity; Average Dose Shift ([3]; ED50 after/before drug, PE, dose 10, intravenous): > 200
Cc1ccccc1N1CCN(CCCN2Cc3cc(Cl)c(S(N)(=O)=O)cc3C2=O)CC1 [Example IV, 6-Chloro-2,3-dihydro-2-[3-[4-(2-methylphenyl)-1-piperazinyl]propyl]-3-oxo-1H-isoindole-5-sulfonamide] | 0.00416 µM |  | 117% | 121% |  | 1.43 µM | -79 ± 4 mm Hg | 18 ± 13 beats per minute |  |  | -48 ± 19 mm Hg | -53 ± 7 mm Hg | -36 ± 5 beats per minute | -22 ± 22 beats per minute | good antihypertensive effect without significantly affecting heart rate | 3.49 | 97% | 123% | 104% | ΔBP 4 hours ([2]; 0.3 mg/kg oral): -8 ± 3 mm Hg; ΔHR 4 hours ([2]; 0.3 mg/kg oral): 13 ± 21 beats per minute; ΔBP 4 hours ([2]; 3 mg/kg oral): -31 ± 7 mm Hg; ΔHR 4 hours ([2]; 3 mg/kg oral): 22 ± 9 beats per minute
COc1ccccc1N1CCN(CCCCN2Cc3cc(Cl)c(S(N)(=O)=O)cc3C2=O)CC1 [Example XI, 6-Chloro-2,3-dihydro-2-[4-[4-(2-methoxyphenyl)-1-piperazinyl]butyl]-3-oxo-1H-isoindole-5-sulfonamide] |  | 2.62 | 137% | 117% | 94% |  |  |  | active as in vivo α blockers | 375 | -94 ± 10 mm Hg | -60 ± 21 mm Hg | -2 ± 8 beats per minute | -22 ± 14 beats per minute | good antihypertensive effect without significantly affecting heart rate | 3.09 | 111% | 113% | 108% | Average Dose Shift ([5]; dose 0.3, intravenous): 5 ± 0.5; Average Dose Shift ([5]; dose 1.0, intravenous): 27 ± 28; Average Dose Shift ([5]; dose 3, intravenous): 63 ± 19
